Test results as given in patent publication US20100297079A1, “COMPOUNDS, COMPOSITIONS AND METHODS FOR TREATING VIRAL INFECTION” (Chimerix, Inc., priority 2009, published 2010).
Where two headings read alike, the source gives them in different places.

Tests used:
Type in all cases: cell-based
MT4 Cell Toxicity Assay = conditions: human
Procedure: Cells used: MT4 cells were obtained from NIH AIDS research & Reference Reagent Program. Cells were used up to passage 30.
Toxicity assay using MTS: 5,000 MT4 cells were plated per well in a 96-well plate. Compounds were diluted in DMSO and further diluted with medium before adding to the plated cells. Plates were then incubated in a CO2 incubator at 37° C. for 6 days.
Cell viability was estimated using MTS, a tetrazolium compound [3-(4,5-dimethylthiazol-2-yl)-5-(3-carboxymethoxyphenyl)-2-(4-sulfophenyl)-2H-tetrazolium], which is converted to a soluble formazan by mitochondrial dehydrogenases in the presence of an electron coupling reagent (phenazine methosulfate; PMS). The formazan product has an absorption maximum around 490 nm. Forty microliters of MTS reagent [MTS (2 mg/ml) and PMS (0.92 mg/ml) mixed at a ratio of 20:1 just before use] was added to each well and plates incubated for 4 hrs at 37° C. Absorbance was read at 490 nm using a Synergy 2 plate reader (BioTek). Data analysis was carried out using the BioTek Gen5 software using a 4-parameter curve fitting function to determine CC50 values.

HCV = experiment: Anti-HCV activity (HCV replicon assay); conditions: Hepatitis C virus
Procedure: (§1) Antiviral activity against HCV is determined using the stably-expressing HCV replicon cell line, AVA5 (sub-genomic (CON1), genotype 1b) (Okuse, et al., Antivir. Res. 65:23 (2005); Korba, et al., Antivir. Res. 77:56 (2008); Blight, et al., Science 290:1972 (2000)). Reductions in intracellular HCV RNA are determined with respect to a cellular control (B-actin) by blot hybridization. Cytotoxicity is assessed by neutral red dye uptake in parallel plates.
Efficacy and cell cytotoxicity values (EC50, EC90 and CC50) are calculated by linear regression analysis (MS EXCEL®, QuattroPro®) (Korba & Gerin, Antivir. Res. 19:55 (1992); Okuse, et al., Antivir. Res. 65:23 (2005)). The therapeutic index is calculated as CC50/EC50. Recombinant human interferon 2b (PBL laboratories, Inc.) is included as a positive control. Activity is subsequently tested against additional genotypes (e.g., genotype 1a) using the format described for the primary assay. In addition to antiviral assays described herein, several other types of anti-HCV activities can also be assessed using methods known to one of ordinary skill in the art. […]

[1] = Cytotoxicity (CC50) in parallel plates of the anti-HCV assay; conditions: human
Procedure: as §1
Efficacy and cell cytotoxicity values (EC50, EC90 and CC50) are calculated by linear regression analysis (MS EXCEL®, QuattroPro®) (Korba & Gerin, Antivir. Res. 19:55 (1992); Okuse, et al., Antivir. Res. 65:23 (2005)). The therapeutic index is calculated as CC50/EC50. Recombinant human interferon 2b (PBL laboratories, Inc.) is included as a positive control. Activity is subsequently tested against additional genotypes (e.g., genotype 1a) using the format described for the primary assay. In addition to antiviral assays described herein, several other types of anti-HCV activities can also be assessed using methods known to one of ordinary skill in the art.

HepG2 cells = experiment: Mitochondrial Biogenesis Assay; conditions: 7 days, ratio of Complex IV to Frataxin
Procedure: Cells used: HepG2 cells were obtained from ATCC. Cells are used up to 25 passages from the ATCC freeze.
Mitochondria Biogenesis Assay using HepG2 cells: 150,000 HepG2 cells were plated per well in a 6-well plate. Compounds were diluted in DMSO and further diluted in the plated cells so as to give a top concentration of 50 μM. Five four-fold dilutions were tested in this assay format. Plates were then incubated in a CO2 incubator at 37° C. for 7 days. Medium containing fresh compound was changed on day 3 and 6 of the assay. Cells were harvested on day 7 of the assay.
On day 7, cells were rinsed with 1×DPBS three times and scraped off into 1×DPBS and held on ice. Whole cell protein estimation was determined to make sure that the cells are suspended at a protein concentration of 3-5 mg/ml.
Cells were lysed on ice by addition of 1:10 volume of diluted detergent (MitoSciences) so as to have a final detergent concentration of 2%. Cells were held on ice for 1 hr and then centrifuged at ˜20K×g for 20 min. The supernatant fraction was used for determining solubilized Frataxin and Complex IV using an ELISA kit from MitoSciences. The ratio of Complex IV to Frataxin was used to determine mitochondrial toxicity. DMSO controls were run to determine ratio of Frataxin and Complex IV in control cells. ddC was run as a positive control in the assay.

[2] = anti-HCV activity, read-out: EC50
[3] = AVA5 HCV replicon cells (sub-genomic CON1, genotype 1b)
[4] = MT4 cells, 6 days, MTS, read-out: MT-4 (TC50)

Row | SMILES | CC50 at 6 days (MT4 Cell Toxicity Assay; MT-4 (TC50) (μM)) [µM] | EC50 (HCV; [2]) [nM] | CC50 [1, 3] [nM] | Mitotoxicity (μM) (HepG2 cells) | CC50 at 6 days (MT4 Cell Toxicity Assay; [4]) [µM] | CC50 [1] [nM] | EC50 (HCV) [nM]
1 | Nc1ncnc2c1c(Br)cn2[C@@H]1O[C@H](CO)[C@@H](O)[C@H]1O [Compound r] | 1 to 20 | 1000 to 5000 |  |  |  |  | 
2 | CCCCCCCCCCCCCCCCOCCCOP(=O)(O)OC[C@H]1O[C@@H](n2cc(C#N)c3c(N)ncnc32)[C@H](O)[C@@H]1O [Compound b] | < 1 | < 100 | < 1000 | * (up to 20 μM) |  |  | 
3 | CC(C)=CCNc1ncnc2c1c(/C(N)=N\O)cn2[C@@H]1O[C@H](CO)[C@@H](O)[C@H]1O [Compound a] | > 100 | < 100 | < 1000 | * (up to 20 μM) |  |  | 
4 | CNC(=O)c1csc(-c2cn([C@@H]3O[C@H](CO)[C@@H](O)[C@H]3O)c3ncnc(N)c23)c1 [Compound o] |  | 1000 to 5000 | 20000 to 100000 |  |  |  | 
5 | CNC(=O)c1csc(-c2cn([C@@H]3O[C@H](CO)[C@@H](O)[C@@]3(C)O)c3ncnc(N)c23)c1 [Compound e] |  |  | 20000 to 100000 |  |  |  | 
6 | C[C@@]1(F)[C@H](O)[C@@H](CO)O[C@H]1n1cc(Br)c2c(N)ncnc21 [Compound c] |  |  | 20000 to 100000 |  |  |  | 
7 | C[C@@]1(F)[C@H](O)[C@@H](CO)O[C@H]1n1cc(-c2cccs2)c2c(N)ncnc21 [Compound f] |  | > 5000 |  | * (up to 20 μM) |  |  | 
8 | C[C@@]1(O)[C@H](O)[C@@H](CO)O[C@H]1n1cc(C#N)c2c(N)ncnc21 [Compound j] | 20 to 100 | 100 to 1000 |  | ** (20-50 μM) |  |  | 
9 | COC(=O)[C@H](C)NP(=O)(OC[C@H]1O[C@@H](n2cc(C(N)=S)c3c(N)ncnc32)[C@](C)(O)[C@@H]1O)Oc1ccccc1 (stereo partly drawn) [Compound k] |  |  |  | * (up to 20 μM) | 20 to 100 | 1000 to 20000 | 100 to 1000
10 | [N-]=[N+]=N[C@H]1C(O)C(CO)OC1n1cc(C(N)=S)c2c(N)ncnc21 (stereo partly drawn) [Compound l] | > 100 | 100 to 1000 | 1000 to 20000 | *** (50-80 μM) |  |  | 
11 | C[C@]1(O)C(n2cc(C(N)=S)c3c(N)ncnc32)O[C@H](CO)[C@H]1O (stereo partly drawn) [Compound d] | 1 to 20 | 1000 to 5000 |  | * (up to 20 μM) |  |  | 
12 | COC(=N)c1cn(CC2(F)COC(CO)C2O)c2ncnc(N)c12 (stereo not drawn) [Compound m] | 20 to 100 | > 5000 |  |  |  |  | 
13 | CC(C)CCNc1ncnc2c1c(C(=N)NO)cn2[C@@H]1O[C@H](CO)[C@@H](O)[C@H]1O [Compound n] | > 100 | 1000 to 5000 | 1000 to 20000 |  |  |  | 
14 | NC(=S)c1cn(C2O[C@H](CO)[C@@H](O)[C@H]2O)c2ncnc(N)c12 (stereo partly drawn) [Compound p] |  |  |  | * (up to 20 μM) | < 1 | < 1000 | < 100
15 | CCCCCCCCCCCCCCCCOCCCOP1(=O)OC[C@H]2O[C@@H](n3cc(C(N)=S)c4c(N)ncnc43)[C@H](O)[C@@H]2O1 (stereo partly drawn) [Compound q] | < 1 | < 100 | 1000 to 20000 |  |  |  | 
16 | CCCCCCCCCCCCCCCCOCCCOP(=O)(O)OC[C@H]1O[C@@H](n2cc(C(N)=S)c3c(N)ncnc32)[C@H](O)[C@@H]1O [Compound h] | < 1 | < 100 | < 1000 |  |  |  | 
17 | COC(=O)[C@H](C)NP(=O)(OC[C@H]1O[C@@H](n2cc(C(N)=S)c3c(N)ncnc32)[C@H](O)[C@@H]1O)Oc1ccccc1 (stereo partly drawn) [Compound g] |  |  |  |  | < 1 | < 1000 | < 100
